Experiment in all cases: NCI anticancer screen, dose series, 48 h
Test [1] deals with DU-145 prostate.
The subject of test [2] is HS 578T breast.
For test [3], the system named is MDA-MB-435.

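Results reflect a 48-hour exposure of cells in 96-well plates to compound at five concentrations. The concentration for 50% growth inhibition is given as GI50. TGI is the concentration that stops growth completely.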 Some results are limits rather than exact numbers.

From PubChem BioAssay (NCI) come the findings set out here.

As to `O=c1oc2ccc(Cl)cc2c(=O)n1-c1ccc(I)cc1F`, the values for the GI50 in test [1], in test [2] and in test [3] were 0.436 µM, 0.161 µM and 0.271 µM, respectively. Moreover, the figures for the TGI in test [1], in test [2] and in test [3] were more than 49.5 µM, 1.11 µM and 3.86 µM, respectively.

As to `N#CC1C(N)=NNC12Nc1ccccc1N2` (stereo not drawn), the GI50 was 10.8 µM in test [1], 4.8 µM in test [2] and 14.1 µM in test [3]. Besides, the TGI in test [1] was more than 100 µM; in test [2], 25.7 µM; in test [3], 63.7 µM.

In the case of `Clc1ccc2nc(Oc3ccccc3)cnc2c1`, the GI50 in test [1], in test [2] and in test [3] was more than 100 µM in each case. The TGI in test [1], in test [2] and in test [3] was more than 100 µM each time.

Consider `Nc1nc(OCc2ccccc2)nc2[nH]ncc12`, for which the results for the GI50 in test [1], in test [2] and in test [3] were 18.4 µM, 17.5 µM and 16.2 µM, respectively. Moreover, the TGI was more than 100 µM in test [1], 38.5 µM in test [2] and 30.5 µM in test [3].

`C=C(C)[C@@H]1CC[C@@]2(C)[C@H]1[C@H]1CCC3[C@@]4(C)CC[C@H](O)C(C)(C)[C@@H]4CC[C@@]3(C)[C@]1(C)C[C@@H]2O` (stereo partly drawn): the results for the TGI in test [1] and in test [3] were more than 100 µM and 84.9 µM, respectively.

In the case of `CCc1c2c(nc3cccc(N)c13)-c1cc3c(c(=O)n1C2)COC(=O)[C@]3(O)CC`, the GI50 in test [1] was 0.00161 µM; in test [3] it was 0.0349 µM. The TGI was more than 100 µM in test [1], more than 100 µM in test [2] and 1.54 µM in test [3].

For the compound `C[C@H](CSC(=O)c1ccccc1)C(=O)N1c2ccccc2C[C@H]1C(=O)O`, the TGI in test [1] and in test [2] was more than 100 µM in each case.

As to `Nc1nc(Nc2cccc(F)c2)nc2ccccc12`, the GI50 in test [1] was 37.3 µM; in test [2] it was 20 µM; in test [3], 16.8 µM. The TGI in test [1] was more than 100 µM; in test [2] it was 58 µM; in test [3], 36.6 µM.

On to `Cc1ccc2c(c1)ncn2-c1ncnc2c1CC(C)c1ccccc1N2C` (stereo not drawn), for which, in test [1], the GI50 is 0.244 µM and the TGI was 15.6 µM. In test [2], the GI50 is 0.104 µM and the TGI was determined as 51 µM.

In turn, `O=[N+]([O-])c1nccn1CC1OC(n2ccnc2[N+](=O)[O-])C(O)C(O)C1O` (stereo not drawn) displayed a TGI in test [2] of more than 100 µM.

On to `CC(=O)OC1C2(CC3N4C(=O)C5(CO)SSC4(CC31O)C(=O)N5C)OC(C)C(C)(C)C2=O` (stereo not drawn), for which the TGI in test [1] is 0.267 µM; in test [2] it was 0.213 µM; in test [3] it was 3.75 µM. Moreover, the GI50 is 0.0449 µM in test [2] and 1.94 µM in test [3].

As for `COC(=O)[C@@H]1CCCN1C(=O)[C@@H]1CCCN1C(=O)[C@@H](Cc1c[nH]c2ccccc12)NC(=S)Nc1cc(C(F)(F)F)cc(C(F)(F)F)c1`, the GI50 in test [1] was 14.6 µM; in test [2], 7.81 µM; in test [3] it was 2.44 µM. Further, the TGI in test [1] is more than 100 µM; in test [2], more than 100 µM; in test [3], 6.8 µM.

As to `Cn1cc(-c2ccc3c(c2)CCN3C(=O)Cc2cccc(C(F)(F)F)c2)c2c(N)ncnc21`, the GI50 in test [1] is 2.5 µM; in test [2], 2.76 µM; in test [3], 4.46 µM. Besides, the values for the TGI in test [1], in test [2] and in test [3] were 19.5 µM, 19.1 µM and 21.2 µM, respectively.

As for `COc1ccc(/C=C2\CCCC3=C2NC(C)=NC3c2ccc(OC)c(OC)c2)cc1OC` (stereo not drawn), the GI50 in test [1] is 16.5 µM; in test [2], 39.1 µM; in test [3] it was 1.05 µM. Moreover, the TGI in test [1], in test [2] and in test [3] was more than 100 µM throughout.

For the compound `CC[CH2][Pb]([CH2]CC)([CH2]CC)[NH]S(=O)(=O)c1ccc(C)cc1`, the GI50 is 0.0853 µM in test [1], 0.0638 µM in test [2] and 0.0194 µM in test [3]. Also, the TGI in test [1] was determined as 0.444 µM; in test [2], 0.354 µM; in test [3], 0.0766 µM.

Regarding `S=c1ssc(Sc2ccccn2)c1Cl`, in test [1], the GI50 is 6.52 µM and the TGI was 20.2 µM. In test [3], the GI50 was 16.8 µM and the TGI stood at 31.5 µM.

For the compound `COc1cc(/C=C(/c2ccccc2)[N+](=O)[O-])c(OC)c2c1OCO2`, the figures for the GI50 in test [1], in test [2] and in test [3] were 1.64 µM, 2.99 µM and 1.5 µM, respectively. Moreover, the TGI was found to be 3.02 µM in test [1], 14.9 µM in test [2] and 3.08 µM in test [3].

In the case of `CCCCC[C@H]1C/C=C2/C(=O)C(Cl)=C[C@@H]2C/C=C\CCCC(=O)O[C@@H](CCCCC)C/C=C2/C(=O)C(Cl)=C[C@@H]2C/C=C\CCCC(=O)O1`, the results for the GI50 in test [1], in test [2] and in test [3] were 0.494 µM, 0.709 µM and 0.344 µM, respectively. In addition, the TGI in test [1] came to 1.74 µM; in test [2] it was 16.7 µM; in test [3] it was 0.793 µM.

In the case of `Cc1cn2c(/C=N/N/C(N)=N\N)c(-c3ccc(Cl)c([N+](=O)[O-])c3)nc2s1`, the GI50 in test [1] was 1.12 µM; in test [2] it was 1.1 µM; in test [3] it was 1.05 µM. Also, the TGI in test [1] worked out at 3.65 µM; in test [2], 2.39 µM; in test [3] it was 2.22 µM.

For the compound `Fc1ccc(Nc2nc(NCCNc3ccnc4cc(Cl)ccc34)nc(N3CCOCC3)n2)cc1`, the GI50 in test [1] was 8.68 µM; in test [2], 7.32 µM; in test [3] it was 2.22 µM. Further, the figures for the TGI in test [1], in test [2] and in test [3] were 21.1 µM, 28.9 µM and 5.38 µM, respectively.

As for `C[C@H](CS(C)(=O)=O)Nc1ncc2cc(Oc3ccc(F)cc3F)c(=O)n(C)c2n1`, the GI50 in test [1], in test [2] and in test [3] was more than 25 µM in each case. Further, the TGI in test [1], in test [2] and in test [3] was more than 25 µM throughout.

As for `Cn1cc(-c2ccc(CNc3cc(-c4cnc5cc(OCCCN6CCCC6)ccn45)ncn3)cc2)cn1`, the GI50 in test [1] was 15.1 µM; in test [2], 3.52 µM; in test [3] it was 1.71 µM. The TGI in test [1] was found to be 31.5 µM; in test [2] it was 26.2 µM; in test [3], 3.19 µM.
